Source: the supplement of paper PMC10307832

How the values were obtained:
Experiment in all cases: relative viability (nuclei count vs DMSO), 5 days (fraction); higher = more cells survive
[1] = compound: CC1=CC(=NN1)NC2=CC(=NC(=N2)/C=C/C3=CC=CC=C3)N4CCN(CC4)C + CC(=O)c1c(C)c2cnc(Nc3ccc(N4CCNCC4)cn3)nc2n(C2CCCC2)c1=O [Palbociclib] (partner 0.5 µM)
Outline: (§1)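 For relative viability, nuclei counts in treated wells were divided by those in vehicle wells. Lung cancer cell lines had been pin-tool dosed in 1536-well plates the day after seeding and cultured for 5 days, then fixed and stained in one step (final 0.05% Triton X-100, 1% formaldehyde, 1 ug/ml Hoechst) and imaged at 4×. Doses were one drug alone or a fixed anchor-drug dose plus five library-drug doses (not always all listed) in √10 steps, and values are duplicate-plate medians.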

[2] = compound: CC1=CC(=NN1)NC2=CC(=NC(=N2)/C=C/C3=CC=CC=C3)N4CCN(CC4)C + N=C(N)NC(=N)NCCc1ccccc1 [Phenformin] (partner 250 µM)
Outline: as §1

[3] = compound: CC1=CC(=NN1)NC2=CC(=NC(=N2)/C=C/C3=CC=CC=C3)N4CCN(CC4)C + NC(=O)Nc1cc(-c2cccc(F)c2)sc1C(=O)N[C@H]1CCCNC1 [AZD7762] (partner 0.2 µM)
Outline: as §1

[4] = compound: CC(C)C[C@H](NC(=O)[C@H](Cc1ccccc1)NC(=O)c1cnccn1)B(O)O [Bortezomib] + Cc1nc(NC(=O)N2CCC[C@H]2C(N)=O)sc1-c1ccnc(C(C)(C)C(F)(F)F)c1 [Alpelisib] (partner 2 µM)
Outline: as §1

Row | Cell Line | relative viability ([1]; first compound 0.08 µM) | relative viability ([1]; first compound 0.253 µM) | relative viability ([1]; first compound 0.8 µM) | relative viability ([1]; first compound 2.53 µM) | relative viability ([1]; first compound 8 µM) | relative viability ([2]; first compound 0.08 µM) | relative viability ([2]; first compound 0.253 µM) | relative viability ([2]; first compound 0.8 µM) | relative viability ([2]; first compound 2.53 µM) | relative viability ([2]; first compound 8 µM) | relative viability ([3]; first compound 0.08 µM) | relative viability ([3]; first compound 0.253 µM) | relative viability ([3]; first compound 0.8 µM) | relative viability ([3]; first compound 2.53 µM) | relative viability ([3]; first compound 8 µM) | relative viability ([4]; first compound 0.0002 µM) | relative viability ([4]; first compound 0.000632 µM) | relative viability ([4]; first compound 0.002 µM) | relative viability ([4]; first compound 0.006325 µM) | relative viability ([4]; first compound 0.02 µM)
1 | LCLC-103H | 0.44 | 0.438 | 0.491 | 0.422 | 0.349 | 0.344 | 0.34 | 0.333 | 0.326 | 0.232 | 0.746 | 0.807 | 0.775 | 0.723 | 0.576 | 0.955 | 0.893 | 1.02 | 1.07 | 0.166
2 | EKVX | 0.414 | 0.465 | 0.362 | 0.301 | 0.144 | 0.236 | 0.21 | 0.236 | 0.189 | 0.109 | 0.649 | 0.667 | 0.753 | 0.413 | 0.122 | 0.94 | 0.934 | 0.932 | 0.733 | 0.0816
3 | NCI-H460 | 0.159 | 0.145 | 0.149 | 0.0195 | 0.0182 | 0.552 | 0.597 | 0.514 | 0.0212 | 0.0183 | 0.6 | 0.72 | 0.681 | 0.372 | 0.0422 | 0.419 | 0.455 | 0.515 | 0.125 | 0.0093
4 | NCI-H1793 | 0.325 | 0.374 | 0.273 | 0.157 | 0.144 | 0.344 | 0.423 | 0.314 | 0.132 | 0.121 | 0.412 | 0.373 | 0.452 | 0.129 | 0.0904 | 0.668 | 0.589 | 0.776 | 0.475 | 0.127
5 | NCI-H727 | 0.641 | 0.628 | 0.672 | 0.691 | 0.409 | 0.398 |  | 0.41 | 0.295 | 0.17 | 0.571 | 0.427 | 0.601 | 0.55 | 0.381 | 0.5 | 0.514 | 0.494 | 0.14 | 0.106
6 | NCI-H838 | 0.243 | 0.241 | 0.169 | 0.127 | 0.106 | 0.567 | 0.583 | 0.462 | 0.123 | 0.107 | 0.963 | 1.09 | 0.99 | 0.782 | 0.623 | 0.977 | 0.983 | 1.13 | 0.475 | 0.134
7 | NCI-H1792 | 0.649 | 0.751 | 0.684 | 0.559 | 0.155 | 0.273 | 0.267 | 0.166 | 0.0557 | 0.0429 | 0.659 | 0.732 | 0.665 | 0.132 | 0.0222 | 0.576 | 0.646 | 0.579 | 0.714 | 0.319
8 | H3255 | 0.322 | 0.319 | 0.345 | 0.313 | 0.267 | 0.369 | 0.362 | 0.684 | 0.341 | 0.27 | 0.866 | 0.935 | 0.955 | 0.782 | 0.374 | 0.688 | 0.696 | 0.479 | 0.156 | 0.163
9 | EPLC-272H | 0.299 | 0.342 | 0.319 | 0.291 | 0.204 | 0.315 | 0.24 | 0.258 | 0.147 | 0.135 | 0.17 | 0.209 | 0.196 | 0.116 | 0.0909 |  |  | 1.09 | 0.943 | 0.115
10 | NCI-H647 | 0.429 | 0.365 | 0.332 | 0.115 | 0.0496 | 0.481 | 0.634 | 0.47 | 0.0675 | 0.0451 | 0.328 | 0.598 | 0.499 | 0.103 | 0.0452 | 1.07 | 1.24 | 0.881 | 0.0394 | 0.0242
11 | LXF-289 | 0.632 | 0.63 | 0.602 | 0.568 | 0.304 | 0.478 | 0.464 | 0.496 | 0.265 | 0.114 | 1.06 | 1.11 | 1.04 | 0.685 | 0.102 | 1.03 | 1.01 | 0.946 | 0.0804 | 0.0589
12 | NCI-H1755 | 0.413 | 0.433 | 0.466 | 0.382 | 0.325 | 0.658 | 0.616 | 0.551 | 0.333 | 0.221 | 0.448 | 0.471 | 0.396 | 0.296 | 0.184 | 0.944 | 0.926 | 0.951 | 0.178 | 0.139
13 | HCC-15 | 0.743 | 0.771 | 0.716 | 0.347 | 0.114 | 0.472 | 0.452 | 0.434 | 0.107 | 0.0823 | 1.1 | 1.46 | 1.25 | 0.875 | 0.34 | 0.845 | 0.911 | 0.833 | 0.307 | 0.0846
14 | EMC-BAC-2 | 0.519 | 0.543 | 0.504 | 0.454 | 0.273 | 0.511 | 0.559 | 0.432 | 0.228 | 0.0995 | 1.11 | 1.22 | 1.1 | 0.654 | 0.354 | 0.657 | 0.73 | 0.788 | 0.17 | 0.117
15 | NCI-H1734 | 0.34 | 0.278 | 0.313 | 0.249 | 0.13 | 0.417 | 0.375 | 0.391 | 0.162 | 0.104 | 0.524 | 0.508 | 0.537 | 0.184 | 0.12 | 0.706 | 0.732 | 0.612 | 0.154 | 0.113
16 | NCI-H1395 | 0.557 | 0.635 | 0.628 | 0.433 | 0.285 | 0.494 | 0.434 | 0.427 | 0.327 | 0.264 | 0.399 | 0.389 | 0.346 | 0.315 | 0.332 | 1.15 | 1.06 | 0.387 | 0.411 | 0.393
